Reference: PubChem BioAssay (NCI)
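Each compound was tested at five concentrations against cells in 96-well plates for 48 hours. TGI marks complete inhibition of growth.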

How the values were obtained:
Assay in all cases: NCI-60 cell line screen, 48 h
OVCAR-8 ovarian = tested on: OVCAR-8 ovarian
M19-MEL melanoma = tested on: M19-MEL melanoma
HOP-18 NSCLC = tested on: HOP-18 NSCLC
SR leukemia = tested on: SR leukemia
RXF 393 renal = tested on: RXF 393 renal
SK-OV-3 ovarian = tested on: SK-OV-3 ovarian
NCI-H23 lung = tested on: NCI-H23 lung
HT29 colon = tested on: HT29 colon
HL-60(TB) leukemia = tested on: HL-60(TB) leukemia
XF 498 CNS = tested on: XF 498 CNS
UACC-62 melanoma = tested on: UACC-62 melanoma
IGROV1 ovarian = tested on: IGROV1 ovarian
NCI-H226 lung = tested on: NCI-H226 lung
DMS 273 small cell lung = tested on: DMS 273 small cell lung
SNB-75 CNS = tested on: SNB-75 CNS
DMS 114 small cell lung = tested on: DMS 114 small cell lung
KM12 colon = tested on: KM12 colon
A549 NSCLC = tested on: A549 NSCLC
UACC-257 melanoma = tested on: UACC-257 melanoma
HCT-15 colon = tested on: HCT-15 colon
M14 melanoma = tested on: M14 melanoma
HOP-92 NSCLC = tested on: HOP-92 NSCLC
NCI-H522 lung = tested on: NCI-H522 lung
OVCAR-3 ovarian = tested on: OVCAR-3 ovarian
SN12C renal = tested on: SN12C renal
OVCAR-5 ovarian = tested on: OVCAR-5 ovarian
SK-MEL-2 melanoma = tested on: SK-MEL-2 melanoma
K-562 leukemia = tested on: K-562 leukemia
SK-MEL-28 melanoma = tested on: SK-MEL-28 melanoma
MOLT-4 leukemia = tested on: MOLT-4 leukemia
CCRF-CEM leukemia = tested on: CCRF-CEM leukemia
HCT-116 colon = tested on: HCT-116 colon
SW-620 colon = tested on: SW-620 colon
LOX IMVI melanoma = tested on: LOX IMVI melanoma
SF-268 CNS = tested on: SF-268 CNS
NCI-H460 lung = tested on: NCI-H460 lung
786-0 renal = tested on: 786-0 renal
HCC-2998 colon = tested on: HCC-2998 colon
RPMI-8226 leukemia = tested on: RPMI-8226 leukemia
RXF-631 renal = tested on: RXF-631 renal
DLD-1 colon = tested on: DLD-1 colon
SF-539 CNS = tested on: SF-539 CNS
UO-31 renal = tested on: UO-31 renal
HOP-62 NSCLC = tested on: HOP-62 NSCLC
TK-10 renal = tested on: TK-10 renal
SF-295 CNS = tested on: SF-295 CNS
LXFL 529 NSCLC = tested on: LXFL 529 NSCLC
KM20L2 colon = tested on: KM20L2 colon
EKVX NSCLC = tested on: EKVX NSCLC
MALME-3M melanoma = tested on: MALME-3M melanoma
OVCAR-4 ovarian = tested on: OVCAR-4 ovarian
ACHN renal = tested on: ACHN renal
U251 CNS = tested on: U251 CNS
CAKI-1 renal = tested on: CAKI-1 renal
SK-MEL-5 melanoma = tested on: SK-MEL-5 melanoma
COLO 205 colon = tested on: COLO 205 colon
SNB-78 CNS = tested on: SNB-78 CNS
SNB-19 CNS = tested on: SNB-19 CNS
A498 renal = tested on: A498 renal

`O=C(CCCCCCCCCCc1ccccc1)c1c(O)cccc1O` was tested, and the TGI (OVCAR-8 ovarian) was 38.1 µM, the TGI (M19-MEL melanoma) was 42.7 µM and the TGI (HOP-18 NSCLC) was 67.5 µM. For the same molecule, the TGI (SR leukemia) was 63.4 µM, the TGI (RXF 393 renal) was 39.9 µM and the TGI (SK-OV-3 ovarian) was > 100 µM. For the same molecule, the TGI (NCI-H23 lung) was 35.9 µM, the TGI (HT29 colon) was 88 µM and the TGI (HL-60(TB) leukemia) was 71.6 µM. It also gave a TGI (XF 498 CNS) of 40.1 µM, a TGI (UACC-62 melanoma) of 36.2 µM and a TGI (IGROV1 ovarian) of 60.5 µM. It also gave a TGI (NCI-H226 lung) of 41.8 µM, a TGI (DMS 273 small cell lung) of 34 µM and a TGI (SNB-75 CNS) of 63.8 µM. It also gave a TGI (DMS 114 small cell lung) of 45.3 µM, a TGI (KM12 colon) of 33.2 µM and a TGI (A549 NSCLC) of 76.1 µM. It also gave a TGI (UACC-257 melanoma) of 38.8 µM, a TGI (HCT-15 colon) of 38.7 µM and a TGI (M14 melanoma) of 35.6 µM. For the same molecule, the TGI (HOP-92 NSCLC) was 41.8 µM, the TGI (NCI-H522 lung) was 42.4 µM and the TGI (OVCAR-3 ovarian) was 63.1 µM. For the same molecule, the TGI (SN12C renal) was 34.6 µM, the TGI (OVCAR-5 ovarian) was 45.2 µM and the TGI (SK-MEL-2 melanoma) was 31.3 µM. The TGI (K-562 leukemia) was 58.7 µM, the TGI (SK-MEL-28 melanoma) was 40.1 µM and the TGI (MOLT-4 leukemia) was 61.8 µM. It also gave a TGI (CCRF-CEM leukemia) of 90.8 µM, a TGI (HCT-116 colon) of 48.3 µM and a TGI (SW-620 colon) of 34.7 µM. It also gave a TGI (LOX IMVI melanoma) of 72.9 µM, a TGI (SF-268 CNS) of 57.8 µM and a TGI (NCI-H460 lung) of 39.6 µM. The TGI (786-0 renal) was 32.3 µM, the TGI (HCC-2998 colon) was 44.3 µM and the TGI (RPMI-8226 leukemia) was > 100 µM. For the same molecule, the TGI (RXF-631 renal) was 85.4 µM, the TGI (DLD-1 colon) was 39.7 µM and the TGI (SF-539 CNS) was 34.8 µM. The TGI (UO-31 renal) was 38.7 µM, the TGI (HOP-62 NSCLC) was 42.2 µM and the TGI (TK-10 renal) was > 100 µM. The TGI (SF-295 CNS) was 47 µM, the TGI (LXFL 529 NSCLC) was 34.7 µM and the TGI (KM20L2 colon) was > 100 µM. The TGI (EKVX NSCLC) was 48.7 µM, the TGI (MALME-3M melanoma) was 34.3 µM and the TGI (OVCAR-4 ovarian) was 57.5 µM. The TGI (ACHN renal) was 69.9 µM, the TGI (U251 CNS) was 38.1 µM and the TGI (CAKI-1 renal) was 74.8 µM. The TGI (SK-MEL-5 melanoma) was 30.4 µM, the TGI (COLO 205 colon) was 56.5 µM and the TGI (SNB-78 CNS) was > 100 µM. The TGI (SNB-19 CNS) was 41.3 µM.

For `Cn1c(=O)c2c3oc(=O)cc(O)c3c(=O)n3c4ccccc4n(c1=O)c23`, the TGI (OVCAR-8 ovarian) was > 100 µM, the TGI (M19-MEL melanoma) was > 100 µM and the TGI (HOP-18 NSCLC) was > 100 µM. For the same molecule, the TGI (SR leukemia) was > 100 µM, the TGI (RXF 393 renal) was > 100 µM and the TGI (SK-OV-3 ovarian) was > 100 µM. For the same molecule, the TGI (NCI-H23 lung) was > 100 µM, the TGI (HT29 colon) was > 100 µM and the TGI (HL-60(TB) leukemia) was 78.7 µM. The TGI (XF 498 CNS) was 68 µM, the TGI (UACC-62 melanoma) was > 100 µM and the TGI (IGROV1 ovarian) was > 100 µM. The TGI (DMS 273 small cell lung) was > 100 µM, the TGI (SNB-75 CNS) was 87.8 µM and the TGI (KM12 colon) was > 100 µM. The TGI (A549 NSCLC) was > 100 µM, the TGI (UACC-257 melanoma) was 82.9 µM and the TGI (HCT-15 colon) was > 100 µM. The TGI (M14 melanoma) was > 100 µM, the TGI (HOP-92 NSCLC) was 95.9 µM and the TGI (OVCAR-3 ovarian) was 78.6 µM. For the same molecule, the TGI (SN12C renal) was > 100 µM, the TGI (OVCAR-5 ovarian) was > 100 µM and the TGI (SK-MEL-2 melanoma) was 69 µM. For the same molecule, the TGI (K-562 leukemia) was 65.8 µM, the TGI (MOLT-4 leukemia) was > 100 µM and the TGI (CCRF-CEM leukemia) was > 100 µM. The TGI (HCT-116 colon) was > 100 µM, the TGI (SW-620 colon) was > 100 µM and the TGI (LOX IMVI melanoma) was 82.4 µM. The TGI (SF-268 CNS) was > 100 µM, the TGI (NCI-H460 lung) was > 100 µM and the TGI (786-0 renal) was > 100 µM. The TGI (HCC-2998 colon) was > 100 µM, the TGI (RPMI-8226 leukemia) was 91.5 µM and the TGI (RXF-631 renal) was > 100 µM. For the same molecule, the TGI (DLD-1 colon) was > 100 µM, the TGI (SF-539 CNS) was > 100 µM and the TGI (UO-31 renal) was > 100 µM. The TGI (HOP-62 NSCLC) was > 100 µM, the TGI (TK-10 renal) was > 100 µM and the TGI (SF-295 CNS) was > 100 µM. For the same molecule, the TGI (LXFL 529 NSCLC) was > 100 µM, the TGI (A498 renal) was > 100 µM and the TGI (EKVX NSCLC) was > 100 µM. For the same molecule, the TGI (MALME-3M melanoma) was > 100 µM, the TGI (OVCAR-4 ovarian) was > 100 µM and the TGI (ACHN renal) was > 100 µM. For the same molecule, the TGI (U251 CNS) was > 100 µM, the TGI (CAKI-1 renal) was > 100 µM and the TGI (SK-MEL-5 melanoma) was 81 µM. For the same molecule, the TGI (COLO 205 colon) was 72.6 µM, the TGI (SNB-78 CNS) was > 100 µM and the TGI (SNB-19 CNS) was > 100 µM.

`CC(=O)NC1C(OCc2ccccc2)OC(COC(=O)CCCCCCCCCCNC(=O)c2cccc3c(=O)c4ccccc4[nH]c23)C(O)C1OC(C)C(=O)NC(C)C(=O)NC(CCC(N)=O)C(N)=O` (stereo unspecified) was tested, and the TGI (OVCAR-8 ovarian) was > 100 µM, the TGI (M19-MEL melanoma) was > 100 µM and the TGI (HOP-18 NSCLC) was > 100 µM. The TGI (SR leukemia) was > 100 µM, the TGI (SK-OV-3 ovarian) was > 100 µM and the TGI (NCI-H23 lung) was > 100 µM. For the same molecule, the TGI (HT29 colon) was > 100 µM, the TGI (HL-60(TB) leukemia) was > 100 µM and the TGI (XF 498 CNS) was > 100 µM. For the same molecule, the TGI (UACC-62 melanoma) was > 100 µM, the TGI (IGROV1 ovarian) was > 100 µM and the TGI (NCI-H226 lung) was > 100 µM. The TGI (DMS 273 small cell lung) was > 100 µM, the TGI (SNB-75 CNS) was > 100 µM and the TGI (DMS 114 small cell lung) was > 100 µM. For the same molecule, the TGI (KM12 colon) was > 100 µM, the TGI (A549 NSCLC) was > 100 µM and the TGI (UACC-257 melanoma) was > 100 µM. For the same molecule, the TGI (HCT-15 colon) was > 100 µM, the TGI (M14 melanoma) was > 100 µM and the TGI (NCI-H522 lung) was > 100 µM. For the same molecule, the TGI (OVCAR-3 ovarian) was > 100 µM, the TGI (SN12C renal) was > 100 µM and the TGI (OVCAR-5 ovarian) was > 100 µM. The TGI (SK-MEL-2 melanoma) was > 100 µM, the TGI (K-562 leukemia) was > 100 µM and the TGI (SK-MEL-28 melanoma) was > 100 µM. For the same molecule, the TGI (MOLT-4 leukemia) was > 100 µM, the TGI (HCT-116 colon) was > 100 µM and the TGI (SW-620 colon) was > 100 µM. For the same molecule, the TGI (LOX IMVI melanoma) was > 100 µM, the TGI (SF-268 CNS) was > 100 µM and the TGI (NCI-H460 lung) was > 100 µM. For the same molecule, the TGI (786-0 renal) was > 100 µM, the TGI (RPMI-8226 leukemia) was > 100 µM and the TGI (RXF-631 renal) was 43.8 µM. The TGI (DLD-1 colon) was > 100 µM, the TGI (SF-539 CNS) was > 100 µM and the TGI (UO-31 renal) was > 100 µM. The TGI (HOP-62 NSCLC) was > 100 µM, the TGI (TK-10 renal) was > 100 µM and the TGI (SF-295 CNS) was > 100 µM. The TGI (LXFL 529 NSCLC) was > 100 µM, the TGI (KM20L2 colon) was > 100 µM and the TGI (A498 renal) was > 100 µM. The TGI (EKVX NSCLC) was > 100 µM, the TGI (OVCAR-4 ovarian) was > 100 µM and the TGI (ACHN renal) was > 100 µM. The TGI (U251 CNS) was > 100 µM, the TGI (CAKI-1 renal) was > 100 µM and the TGI (SK-MEL-5 melanoma) was > 100 µM. The TGI (COLO 205 colon) was > 100 µM, the TGI (SNB-78 CNS) was > 100 µM and the TGI (SNB-19 CNS) was > 100 µM.
